31 compounds from patent US12344600B2, “c-Myc mRNA translation modulators and uses thereof in the treatment of cancer” (Anima Biotech Inc., priority 2022, dated 2025) can be followed below.

Each structure is given as a SMILES string.

This test deals with c-Myc. Description: c-Myc immunofluorescence assay. The test is classed as cell-based, human. The conditions noted are these: A549 cells, 24 hours, anti-c-Myc immunofluorescence. The method, then:
A549 human non-small cell lung carcinoma cells were treated for 24 hours with increasing compound concentration, cells were fixed and stained with a nuclei stain (DAPI) and anti-c-Myc fluorescent antibody. The c-Myc signal was quantified by image analysis, and data was exported and analyzed using TIBCO Spotfire® (TIBCO Corporation). Dose response curves were generated and fitted with logaristic regression to calculate potency (EC50 values). Potency values are presented in Table 2 for all compounds and are shown for selected compounds (FIG. 3).
A549 cells were grown in 384-wells plates (Perkin Elmer, Cat. 6057300) for 48 hours, treated with compounds and then fixed for 20 min in 4% paraformaldehyde. After that permeabilization was done using 0.1% Triton X-100 in PBS for 20 min. Primary anti-c-Myc antibody (Abcam, ab32072) staining was performed for 90 min at room temperature. Cells then were washed twice with PBS and incubated with secondary antibody (Abcam, ab150075) for 90 min at room temperature. Nuclei were stained with DAPI for 10 min and washed twice with PBS.
Cell images were taken with Operetta (Perkin Elmer, USA), a wide-field fluorescence microscope at 20× magnification. After acquisition, the images were transferred to Columbus software (Perkin-Elmer) for image analysis. In Columbus, cells were identified by their nucleus, using the “Find Nuceli” module and cytoplasm was detected based on the secondary antibody channel. Subsequently, the fluorescent signal was enumerated in the identified cell region. Then data was exported to a data analysis and visualization software, Tibco Spotfire, USA.
Turning to `CN1CCC[C@H](CN2CC[C@@H](CNC(=O)C3CCN(c4nc(-c5ccc(Cl)cc5)no4)CC3)C2)C1` (single isomer, unassigned) [Compound 470], the “Myc Efficacy (−LogEC50)” value was “++ (++ ≥5 and <6)”.

Consider `CN1CCC[C@H](CN2CC[C@H](CNC(=O)C3CCN(c4nc(-c5ccc(Cl)cc5)no4)CC3)C2)C1` (single isomer, unassigned) [Compound 471], for which the “Myc Efficacy (−LogEC50)” value is “++ (++ ≥5 and <6)”. Take `COc1ccc(-c2noc(N3CCC(C(=O)NCCCN4CCCCC4)CC3)n2)cc1` [Compound 101, 1-(3-(4-methoxyphenyl)-1,2,4-oxadiazol-5-yl)-N-(3-(piperidin-1-yl)propyl)piperidine-4-carboxamide]: the “Myc Efficacy (−LogEC50)” value is “+ (+ >3 and <5)”.

In the case of `CCCCN(CC)CCCNC(=O)C1CCN(c2nc(-c3ccc(OC)cc3)no2)CC1` [Compound 102, N-(3-(butyl(ethyl)amino)propyl)-1-(3-(4-methoxyphenyl)-1,2,4-oxadiazol-5-yl)piperidine-4-carboxamide], the “Myc Efficacy (−LogEC50)” value is “+ (+ >3 and <5)”. Turning to `CCc1ccc(CNC(=O)C2CCN(c3nc(-c4ccc(Cl)cc4)no3)CC2)cc1` [Compound 103, 1-(3-(4-chlorophenyl)-1,2,4-oxadiazol-5-yl)-N-(4-ethylbenzyl)piperidine-4-carboxamide], the “Myc Efficacy (−LogEC50)” value was “+ (+ >3 and <5)”. In the case of `CCCN1CCN(C(=O)C2CCN(c3nc(-c4ccc(OC)cc4)no3)CC2)CC1` [Compound 104, (1-(3-(4-methoxyphenyl)-1,2,4-oxadiazol-5-yl)piperidin-4-yl)(4-propylpiperazin-1-yl)methanone] it was “+ (+ >3 and <5)”; in that of `COc1ccc(-c2noc(N3CCC(C(=O)NCC4CCN(Cc5ccc(C)cc5)C4)CC3)n2)cc1` (stereo not shown) [Compound 105, 1-(3-(4-methoxyphenyl)-1,2,4-oxadiazol-5-yl)-N-((1-(4-methylbenzyl)pyrrolidin-3-yl)methyl)piperidine-4-carboxamide], “++ (++ ≥5 and <6)”. The same measure for `COc1ccc(-c2noc(N3CCC(C(=O)NC[C@H]4CCN(Cc5ccc(C)cc5)C4)CC3)n2)cc1` [Compound 106, (R)-1-(3-(4-methoxyphenyl)-1,2,4-oxadiazol-5-yl)-N-((1-(4-methylbenzyl)pyrrolidin-3-yl)methyl)piperidine-4-carboxamide]: “++ (++ ≥5 and <6)”.

Regarding `COc1ccc(-c2noc(N3CCC(C(=O)NC[C@@H]4CCN(Cc5ccc(C)cc5)C4)CC3)n2)cc1` [Compound 107, (S)-1-(3-(4-methoxyphenyl)-1,2,4-oxadiazol-5-yl)-N-((1-(4-methylbenzyl)pyrrolidin-3-yl)methyl)piperidine-4-carboxamide], the “Myc Efficacy (−LogEC50)” value was “+ (+ >3 and <5)”.

Regarding `COc1ccc(-c2noc(N3CCC(C(=O)N4CCCC4)CC3)n2)cc1` [Compound 109, (1-(3-(4-methoxyphenyl)-1,2,4-oxadiazol-5-yl)piperidin-4-yl)(pyrrolidin-1-yl)methanone], the “Myc Efficacy (−LogEC50)” value is “+ (+ >3 and <5)”.

For `COc1ccc(-c2noc(N3CCC(C(=O)N4CCC(C)CC4)CC3)n2)cc1` [Compound 110, (1-(3-(4-methoxyphenyl)-1,2,4-oxadiazol-5-yl)piperidin-4-yl)(4-methylpiperidin-1-yl)methanone], the “Myc Efficacy (−LogEC50)” value was “+ (+ >3 and <5)”. In the case of `COc1ccc(-c2noc(N3CCC(C(=O)NCCN(C)C)CC3)n2)cc1` [Compound 111, N-(2-(dimethylamino)ethyl)-1-(3-(4-methoxyphenyl)-1,2,4-oxadiazol-5-yl)piperidine-4-carboxamide] it was “+ (+ >3 and <5)”; in that of `COCCCNC(=O)C1CCN(c2nc(-c3ccc(OC)cc3)no2)CC1` [Compound 112, 1-(3-(4-methoxyphenyl)-1,2,4-oxadiazol-5-yl)-N-(3-methoxypropyl)piperidine-4-carboxamide], “+ (+ >3 and <5)”; in that of `CCN(CC)CCCNC(=O)C1CCN(c2nc(-c3ccc(OC)cc3)no2)CC1` [Compound 113, N-(3-(diethylamino)propyl)-1-(3-(4-methoxyphenyl)-1,2,4-oxadiazol-5-yl)piperidine-4-carboxamide], “+ (+ >3 and <5)”.

Turning to `CCN(CC)CCNC(=O)C1CCN(c2nc(-c3ccc(OC)cc3)no2)CC1` [Compound 114, N-(2-(diethylamino)ethyl)-1-(3-(4-methoxyphenyl)-1,2,4-oxadiazol-5-yl)piperidine-4-carboxamide], the “Myc Efficacy (−LogEC50)” value was “+ (+ >3 and <5)”. In the case of `COc1ccc(-c2noc(N3CCC(C(=O)NCc4ccccn4)CC3)n2)cc1` [Compound 115, 1-(3-(4-methoxyphenyl)-1,2,4-oxadiazol-5-yl)-N-(pyridin-2-ylmethyl)piperidine-4-carboxamide] it was “− (− ≤3)”. Take `COc1ccc(-c2noc(N3CCC(C(=O)NCc4cccnc4)CC3)n2)cc1` [Compound 116, 1-(3-(4-methoxyphenyl)-1,2,4-oxadiazol-5-yl)-N-(pyridin-3-ylmethyl)piperidine-4-carboxamide]: the “Myc Efficacy (−LogEC50)” value was “+ (+ >3 and <5)”. In the case of `COc1ccc(-c2noc(N3CCC(C(=O)NCCCN4CCN(C)CC4)CC3)n2)cc1` [Compound 117, 1-(3-(4-methoxyphenyl)-1,2,4-oxadiazol-5-yl)-N-(3-(4-methylpiperazin-1-yl)propyl)piperidine-4-carboxamide] it was “+ (+ >3 and <5)”. The same measure for `CCCCN(CC)CCNC(=O)C1CCN(c2nc(-c3ccc(OC)cc3)no2)CC1` [Compound 119, N-(2-(butyl(ethyl)amino)ethyl)-1-(3-(4-methoxyphenyl)-1,2,4-oxadiazol-5-yl)piperidine-4-carboxamide]: “+ (+ >3 and <5)”; for `COc1ccc(-c2noc(N3CCC(C(=O)NCc4cccs4)CC3)n2)cc1` [Compound 120, 1-(3-(4-methoxyphenyl)-1,2,4-oxadiazol-5-yl)-N-(thiophen-2-ylmethyl)piperidine-4-carboxamide]: “+ (+ >3 and <5)”; for `COc1ccc(-c2noc(N3CCC(C(=O)NCc4cccc(OC)c4)CC3)n2)cc1` [Compound 121, N-(3-methoxybenzyl)-1-(3-(4-methoxyphenyl)-1,2,4-oxadiazol-5-yl)piperidine-4-carboxamide]: “+ (+ >3 and <5)”. `COc1ccc(-c2noc(N3CCC(C(=O)NCc4cccc(Cl)c4)CC3)n2)cc1` [Compound 122, N-(3-chlorobenzyl)-1-(3-(4-methoxyphenyl)-1,2,4-oxadiazol-5-yl)piperidine-4-carboxamide]: the “Myc Efficacy (−LogEC50)” value was “+ (+ >3 and <5)”. In the case of `COc1ccc(-c2noc(N3CCC(C(=O)NCc4ccc(Cl)cc4)CC3)n2)cc1` [Compound 123, N-(4-chlorobenzyl)-1-(3-(4-methoxyphenyl)-1,2,4-oxadiazol-5-yl)piperidine-4-carboxamide] it was “+ (+ >3 and <5)”; in that of `COc1ccc(-c2noc(N3CCC(C(=O)NCCCN4CCCC(C)C4)CC3)n2)cc1` (stereo not shown) [Compound 124, 1-(3-(4-methoxyphenyl)-1,2,4-oxadiazol-5-yl)-N-(3-(3-methylpiperidin-1-yl)propyl)piperidine-4-carboxamide], “+ (+ >3 and <5)”. The same measure for `COc1ccc(-c2noc(NCCCN3CCC(Cc4ccccc4)CC3)n2)cc1` [Compound 125, N-(3-(4-benzylpiperidin-1-yl)propyl)-3-(4-methoxyphenyl)-1,2,4-oxadiazol-5-amine]: “+ (+ >3 and <5)”; for `CCc1ccc(CNC(=O)C2CCN(c3nc(-c4ccc(OC)cc4)no3)CC2)cc1` [Compound 126, N-(4-ethylbenzyl)-1-(3-(4-methoxyphenyl)-1,2,4-oxadiazol-5-yl)piperidine-4-carboxamide]: “+ (+ >3 and <5)”; for `CCCNC(=O)C1CCN(c2nc(-c3ccc(OC)cc3)no2)CC1` [Compound 127, 1-(3-(4-methoxyphenyl)-1,2,4-oxadiazol-5-yl)-N-propylpiperidine-4-carboxamide]: “+ (+ >3 and <5)”.

As to `COc1ccc(-c2noc(N3CCC(C(=O)NCCc4ccccc4)CC3)n2)cc1` [Compound 128, 1-(3-(4-methoxyphenyl)-1,2,4-oxadiazol-5-yl)-N-phenethylpiperidine-4-carboxamide], the “Myc Efficacy (−LogEC50)” value was “+ (+ >3 and <5)”.

Turning to `COc1ccc(-c2noc(N3CCC(C(=O)NCCCc4ccccc4)CC3)n2)cc1` [Compound 129, 1-(3-(4-methoxyphenyl)-1,2,4-oxadiazol-5-yl)-N-(3-phenylpropyl)piperidine-4-carboxamide], the “Myc Efficacy (−LogEC50)” value was “+ (+ >3 and <5)”.

For the compound `COc1ccc(-c2noc(N3CCC(C(=O)NCCCN(C)c4ccccc4)CC3)n2)cc1` [Compound 130, 1-(3-(4-methoxyphenyl)-1,2,4-oxadiazol-5-yl)-N-(3-(methyl(phenyl)amino)propyl)piperidine-4-carboxamide], the “Myc Efficacy (−LogEC50)” value was “+ (+ >3 and <5)”. The same measure for `O=C(C1CCN(c2nc(-c3ccccc3)no2)CC1)N1CCN(Cc2ccccc2)CC1` [Compound 131, (4-benzylpiperazin-1-yl)(1-(3-phenyl-1,2,4-oxadiazol-5-yl)piperidin-4-yl)methanone]: “+ (+ >3 and <5)”.
